Tests used:
[1] = test system: activated partial thromboplastin time; assay: Activated partial thromboplastin time; format: in vivo, human; conditions: for LS mean aPTT at 2 h after dosing: ANCOVA; for Activated partial thromboplastin time A max / Activated partial thromboplastin time A min / Activated partial thromboplastin time AUEτ: mean ± SD; for Activated partial thromboplastin time T max: median (minimum, maximum)
thrombin generation = assay: Technothrombin thrombin generation assay; format: in vivo, human; conditions: for Endogenous thrombin potential A max / Endogenous thrombin potential A min / Lag time A max / Lag time A min / Peak thrombin A max / Peak thrombin A min / Time to peak A max / Time to peak A min / Velocity A max / Velocity A min: mean ± SD
Safety assessment = format: in vivo, human; conditions: healthy adult subjects
[2] = cited from earlier work
[3] = Plasma pharmacokinetics in healthy subjects; conditions: for T max: median (minimum, maximum); for AUC: AUCτ, 24 h dosing interval; for Cmax: C max, healthy subjects
[4] = day 4, edoxaban after switching from dabigatran etexilate (treatment 3)
[5] = day 4, edoxaban after switching from rivaroxaban (treatment 2)
[6] = day 4, edoxaban alone (treatment 1)
[7] = edoxaban after switching from dabigatran etexilate, day 4 (treatment 3)
[8] = edoxaban after switching from rivaroxaban, day 4 (treatment 2)
[9] = edoxaban alone, day 1 (treatment 1)
[10] = edoxaban alone, day 4 (treatment 1)

SMILES: CN1CCc2nc(C(=O)N[C@@H]3C[C@@H](C(=O)N(C)C)CC[C@@H]3NC(=O)C(=O)Nc3ccc(Cl)cn3)sc2C1 [Edoxaban, edoxaban]
- LS mean aPTT at 2 h after dosing ([1]; day 4, after switching from dabigatran etexilate to edoxaban (treatment 3)): 47.6 s
- Activated partial thromboplastin time A max [1, 4]: 50.8 ± 8.92 s
- Activated partial thromboplastin time A min [1, 4]: 30.0 ± 2.20 s
- Activated partial thromboplastin time AUEτ [1, 4]: 863 ± 87.3 s·h
- Activated partial thromboplastin time T max [1, 4]: 1.00 (0.50, 3.00) h
- Activated partial thromboplastin time A max [1, 5]: 36.5 ± 3.94 s
- Activated partial thromboplastin time A min [1, 5]: 28.4 ± 2.13 s
- Activated partial thromboplastin time AUEτ [1, 5]: 738 ± 58.6 s·h
- Activated partial thromboplastin time T max [1, 5]: 1.00 (0.50, 4.00) h
- LS mean aPTT at 2 h after dosing [1, 6]: 35.0 s
- Activated partial thromboplastin time A max [1, 6]: 35.9 ± 3.15 s
- Activated partial thromboplastin time A min [1, 6]: 27.7 ± 1.70 s
- Activated partial thromboplastin time AUEτ [1, 6]: 725 ± 48.8 s·h
- Activated partial thromboplastin time T max [1, 6]: 1.50 (0.50, 4.00) h
- time to peak effect on aPTT ([1]; edoxaban alone (treatment 1), return to baseline by 24 h): 1 to 2 h
- ETP Amax (thrombin generation; day 4, continual edoxaban treatment (treatment 1)): 3644 ± 434 mN·min
- Endogenous thrombin potential A max (thrombin generation; [7]): 3338 ± 575 nM·min
- Endogenous thrombin potential A min (thrombin generation; [7]): 1239 ± 828 nM·min
- Lag time A max (thrombin generation; [7]): 55.3 ± 16.2 min
- Lag time A min (thrombin generation; [7]): 20.5 ± 3.60 min
- Peak thrombin A max (thrombin generation; [7]): 302 ± 77.0 nM
- Peak thrombin A min (thrombin generation; [7]): 48.9 ± 25.2 nM
- Time to peak A max (thrombin generation; [7]): 74.0 ± 12.4 min
- Time to peak A min (thrombin generation; [7]): 27.5 ± 7.94 min
- Velocity A max (thrombin generation; [7]): 46.5 ± 25.7 nM/min
- Velocity A min (thrombin generation; [7]): 2.13 ± 1.35 nM/min
- Endogenous thrombin potential A max (thrombin generation; [8]): 3680 ± 462 nM·min
- Endogenous thrombin potential A min (thrombin generation; [8]): 1506 ± 798 nM·min
- Lag time A max (thrombin generation; [8]): 39.9 ± 9.96 min
- Lag time A min (thrombin generation; [8]): 15.8 ± 3.54 min
- Peak thrombin A max (thrombin generation; [8]): 324 ± 123 nM
- Peak thrombin A min (thrombin generation; [8]): 49.2 ± 31.9 nM
- Time to peak A max (thrombin generation; [8]): 59.4 ± 14.6 min
- Time to peak A min (thrombin generation; [8]): 22.0 ± 5.15 min
- Velocity A max (thrombin generation; [8]): 67.4 ± 46.6 nM/min
- Velocity A min (thrombin generation; [8]): 3.04 ± 2.88 nM/min
- Endogenous thrombin potential A max (thrombin generation; [9]): 3635 ± 432 nM·min
- Endogenous thrombin potential A min (thrombin generation; [9]): 1520 ± 754 nM·min
- Lag time A max (thrombin generation; [9]): 38.3 ± 8.59 min
- Lag time A min (thrombin generation; [9]): 15.8 ± 2.25 min
- Peak thrombin A max (thrombin generation; [9]): 323 ± 98.1 nM
- Peak thrombin A min (thrombin generation; [9]): 45.7 ± 25.5 nM
- Time to peak A max (thrombin generation; [9]): 58.6 ± 12.6 min
- Time to peak A min (thrombin generation; [9]): 22.2 ± 4.13 min
- Velocity A max (thrombin generation; [9]): 61.4 ± 31.3 nM/min
- Velocity A min (thrombin generation; [9]): 2.62 ± 1.92 nM/min
- Endogenous thrombin potential A max (thrombin generation; [10]): 3644 ± 434 nM·min
- Endogenous thrombin potential A min (thrombin generation; [10]): 1474 ± 755 nM·min
- Lag time A max (thrombin generation; [10]): 37.8 ± 7.09 min
- Lag time A min (thrombin generation; [10]): 16.9 ± 2.41 min
- Peak thrombin A max (thrombin generation; [10]): 315 ± 90.6 nM
- Peak thrombin A min (thrombin generation; [10]): 43.4 ± 25.1 nM
- Time to peak A max (thrombin generation; [10]): 58.5 ± 12.2 min
- Time to peak A min (thrombin generation; [10]): 23.7 ± 4.29 min
- Velocity A max (thrombin generation; [10]): 58.4 ± 31.9 nM/min
- Velocity A min (thrombin generation; [10]): 2.40 ± 1.89 nM/min
- tolerability (Safety assessment): well tolerated
- oral bioavailability [2]: approximately 62%
- terminal elimination half-life [2]: 10 to 14 h
- time to peak plasma concentration and peak antithrombotic effect ([2]; oral): 1 to 2 h
- T max ([3]; edoxaban day 4 after switching from dabigatran etexilate (treatment 3)): 1.00 (0.50, 3.00) h
- T max ([3]; edoxaban day 4 after switching from rivaroxaban (treatment 2)): 1.00 (0.50, 2.00) h
- Tmax ([3]; human, in vivo, 60 mg): 1 h
- AUC ([3]; human, in vivo, 60 mg, edoxaban alone, day 1 (treatment 1), mean ± SD): 1780 ± 319 ng·h/mL
- AUC ([3]; human, in vivo, 60 mg, edoxaban alone, day 4 (treatment 1), mean ± SD): 1990 ± 403 ng·h/mL
- AUC ([3]; human, in vivo, 60 mg, edoxaban day 4 after switching from dabigatran etexilate (treatment 3), mean ± SD): 1680 ± 475 ng·h/mL
- AUC ([3]; human, in vivo, 60 mg, edoxaban day 4 after switching from rivaroxaban (treatment 2), mean ± SD): 1740 ± 353 ng·h/mL
- Cmax ([3]; human, in vivo, 60 mg, edoxaban 60 mg on day 4 after switching from dabigatran etexilate 150 mg twice daily for 3 days (treatment 3), mean ± SD): 280 ± 124 ng/mL
- Cmax ([3]; human, in vivo, 60 mg, edoxaban 60 mg on day 4 after switching from rivaroxaban 20 mg once daily for 3 days (treatment 2), mean ± SD): 288 ± 113 ng/mL
- Cmax ([3]; human, in vivo, 60 mg, edoxaban 60 mg once daily alone, day 1 (treatment 1), mean ± SD): 309 ± 97.2 ng/mL
- Cmax ([3]; human, in vivo, 60 mg, edoxaban 60 mg once daily alone, day 4 (treatment 1), mean ± SD): 303 ± 87.7 ng/mL
- concentration at 1 day ([3]; human, in vivo, 60 mg, C trough, edoxaban alone, day 1 (treatment 1), mean ± SD): 14 ± 5.44 ng/mL
- concentration at 4 day ([3]; human, in vivo, 60 mg, C trough, edoxaban alone, day 4 (treatment 1), mean ± SD): 15.5 ± 3.98 ng/mL
- concentration at 4 day ([3]; human, in vivo, 60 mg, C trough, edoxaban day 4 after switching from dabigatran etexilate (treatment 3), mean ± SD): 12.8 ± 4.13 ng/mL
- concentration at 4 day ([3]; human, in vivo, 60 mg, C trough, edoxaban day 4 after switching from rivaroxaban (treatment 2), mean ± SD): 13.4 ± 5 ng/mL

SMILES: O=C(NC[C@H]1CN(c2ccc(N3CCOCC3=O)cc2)C(=O)O1)c1ccc(Cl)s1 [rivaroxaban]
- tolerability (Safety assessment): well tolerated

SMILES: CCCCCCOC(=O)NC(=N)c1ccc(NCc2nc3cc(C(=O)N(CCC(=O)OCC)c4ccccn4)ccc3n2C)cc1 [dabigatran etexilate]
- tolerability (Safety assessment): well tolerated
